System: third instar larvae of Spodoptera litura
Assay: Test Example 1: cabbage leaf immersion test, insecticidal ratio
Format: in vivo
Details: cabbage leaf immersed 60 seconds, 2 days after, three replications
Description: A flowable formulation containing 10.0% by weight of pyridalyl (trade name: Pleo® flowable, manufactured by Sumitomo Chemical Co., Ltd.) was diluted with water containing 0.02% by volume of a spreading agent (trade name: Sindain®, manufactured by Sumitomo Chemical Co., Ltd.) so as to adjust the concentration of pyridalyl to 12.5 ppm.
A flowable formulation containing 10.0% by weight of indoxacarb (trade name: Tornado® flowable, manufactured by DuPont) was diluted with water containing 0.02% by volume of a spreading agent (trade name: Sindain®, manufactured by Sumitomo Chemical Co., Ltd.) so as to adjust the concentration of indoxacarb to 6.25 ppm.
The water dilution of pyridalyl and the water dilution of indoxacarb were mixed in the same amount to prepare a test chemical solution.
A cabbage was planted in a pot having a volume of 860 ml and grown to the forth leaf stage. Each leaf of the cabbage seedling was cut off. One leaf of the cabbage was immersed in the test chemical solution for 60 seconds. After air-drying, the leaf was placed in a cup having a volume of 500 ml in which filter paper had been spread on the bottom. In the cup, 10 third instar larvae of Spodoptera litura were released (the inside of the cup containing the treated cabbage was regarded as the treated area). […]
An insecticidal ratio was calculated by correcting the results using the following equation. […]

| Structure (SMILES) | Insecticidal ratio (%) (active ingredient 3.13 ppm) | Insecticidal ratio (%) (active ingredient 6.25 ppm) |
| --- | --- | --- |
| COC(=O)N(C(=O)N1CO[C@@]2(C(=O)OC)Cc3cc(Cl)ccc3C2=N1)c1ccc(OC(F)(F)F)cc1 [Indoxacarb, methyl(4aS)-7-chloro-2,5-dihydro-2-[[(methoxycarbonyl)[4-(trifluoromethoxy)phenyl]amino]carbonyl]indeno[1,2-e] [1,3,4]oxadiazine-4a(3H)-carboxylate] | 16.7 | – |
| FC(F)(F)c1ccc(OCCCOc2c(Cl)cc(OCC=C(Cl)Cl)cc2Cl)nc1 [Pyridalyl, 2-[3-[2,6-dichloro-4-[(3,3-dichloro-2-propenyl)oxy]phenoxy]propoxy]-5-(trifluoromethyl)pyridine] | – | 10.0 |
